# “And” between values parts separate entries of the source, which are not always exact repeats. Equal values may be shown once. “Also recorded” adds a separate entry of the source.
# Columns and labels:
# [1] = tested on: patients with unresectable locally advanced or metastatic triple-negative breast cancer (mTNBC); details: cited from earlier work
# [2] = tested on: patients with locally advanced or mUC after platinum-containing chemotherapy and PD-1 or PD-L1 inhibitor; details: cited from earlier work
# [3] = tested on: patients with metastatic TNBC; details: N=108; cited from earlier work
# [4] = tested on: patients treated with sacituzumab govitecan-hziy; details: cited from earlier work
# [5] = tested on: patients with unresectable locally advanced or metastatic TNBC who received at least 2 prior treatments; assay: Phase 2 single-arm open-label study of trilaciclib administered prior to sacituzumab govitecan-hziy (NCT05113966); format: in vivo, human; details: for Grade ≥3 TRAEs related to the named study drug / patients with AEs related to the named study drug: combination study, attribution by investigators
# Method: Early results from initial human clinical trials (see, e.g., NCT05113966) have shown trilaciclib's ability to drastically reduce side effects associated with sacituzumab govitecan administration, including a reduction in the incidence of severe (Grade 3/4) neutropenia (see, for example, Example 1, FIG. 2A). In the initial studies, 8 female patients (median age 55.0 years) had been enrolled and completed a median 3 (range 1-6) 21-day cycles, wherein sacituzumab govitecan was administered on days 1 and 8 of each 21-day cycle, and trilaciclib was administered over a 30 minute intravenous administration within 4 hours prior to administration of sacituzumab govitecan on days 1 and 8 of each 21-day cycle (see, e.g., FIG. 1). All patients had received a prior taxane and 7 had received a prior immune checkpoint inhibitor (5 atezolizumab, 2 pembrolizumab; 4 in the adjuvant setting, 3 in the metastatic setting). Severe (Grade 3/4) neutropenia occurred in only 1 patient (12.5% with trilaciclib compared with 52% in the ASCENT study). No patients had Grade 3/4 anemia or thrombocytopenia, and none had febrile neutropenia or a serious infection. Granulocyte colony-stimulating factors were administered to 2 patients (25%) and 1 patient required intravenous antibiotics. No patients required red blood cell/platelet transfusions or erythropoiesis-stimulating agents. […] There was only 1 treatment-related adverse event of diarrhea.
# FIG. 1 is a schematic of a human clinical trial assessing the safety and efficacy of trilaciclib administered with sacituzumab govitecan-hziy (Trodelvy®) in patients with locally advanced or metastatic TNBC who received at least 2 prior treatments, at least 1 in the metastatic setting. The study will include 3 study phases: Screening Phase, treatment Phase, and Survival Follow-up Phase. The treatment phase consists of 21-day cycles: Trilaciclib will be administered IV prior to sacituzumab govitecan-hziy infusions. Trilaciclib will be administered via IV prior to sacituzumab govitecan-hziy administration at 240 mg/m^2. Sacituzumab govitecan-hziy will be administered via IV at 10 mg/kg. The study will include 3 study phases: Screening Phase, Treatment Phase, and Survival Follow up Phase. The Treatment Phase begins on the day of the first dose of study treatment and completes at the Safety Follow-up Visit. The first Survival Follow-up assessment should occur approximately 3 months after the End of Treatment Visit. DC=discontinuation, PD=Progressive disease, PI=Principal Investigator, WD=Withdraw.
# An exploratory Phase 2, multicenter, open-label study evaluating the safety and efficacy of trilaciclib administered with sacituzumab govitecan-hziy in patients with unresectable locally advanced or metastatic TNBC who received at least 2 prior treatments, at least 1 in the metastatic setting, is provided herein.
# Trilaciclib plus sacituzumab govitecan-hziy will be administered intravenously (IV) in 21-day cycles as follows: • Trilaciclib 240 mg/m^2 administered as a 30-minute IV infusion completed within 4 hours prior to the start of sacituzumab govitecan-hziy on Day 1 and Day 8 of each 21-day treatment cycle. • Sacituzumab govitecan-hziy 10 mg/kg administered IV on Day 1 and Day 8 of each 21-day treatment cycle.
# The first infusion of sacituzumab govitecan-hziy is administered over 3 hours and the patient is observed during the infusion and for at least 30 minutes following the initial dose for signs or symptoms of infusion-related reactions. Subsequent infusions of sacituzumab govitecan-hziy may be administered over 1 to 2 hours if prior infusions were tolerated and patients should be observed during the infusion and for at least 30 minutes after infusion. […]
# [6] = tested on: patients with metastatic urothelial carcinoma (mUC) progressing after platinum-based chemotherapy and ICIs; details: following progression; cited from earlier work
# [7] = tested on: patients with locally recurrent unresectable or metastatic TNBC whose tumors express PD-L1 (CPS ≥10); details: cited from earlier work
# [8] = tested on: patients with unresectable locally advanced/metastatic triple-negative breast cancer, PD-L1 positive; details: paclitaxel with vs without atezolizumab, cited from earlier work
# [9] = tested on: patients with PD-L1 positive locally advanced unresectable/metastatic TNBC; details: cited from earlier work
# patients with mUC = details: in vivo; cited from earlier work
# [10] = mTNBC relapsed after at least two prior chemotherapies
# [11] = vs physician's choice of single-agent chemotherapy
# [12] = trilaciclib prior to sacituzumab govitecan, 8 patients
# [13] = trilaciclib prior to sacituzumab govitecan, RECIST v1.1, 8 patients
compound,measurement,setting,value
sacituzumab govitecan,"Severe (Grade 3/4) neutropenia, patients","[1]; ASCENT study, without trilaciclib",52%
same,"G-CSF used as a rescue therapy, patients",[1]; ASCENT study,44%
same,"adverse reaction leading to a dose reduction, patients",[1]; ASCENT study,22%
same,"adverse reaction leading to treatment interruption, patients",[1]; ASCENT study,45%
same,"permanently discontinued for adverse reactions, patients","[1]; mTNBC patients, ASCENT study",5%
same,median overall survival (OS),[1]; [10],11.8 months
same,median progression free survival (PFS),[1]; [10],4.8 months
same,OS hazard ratio (HR),[1]; [11],0.51
same,PFS hazard ratio [HR],[1]; [11],0.43
same,objective (overall) response rate (ORR),"[2]; 10 mg/kg intravenously, days 1 and 8 of a 21-day cycle, 112 patients, RECIST 1.1",27.7%
same,median duration of response (DOR),"[2]; 10 mg/kg intravenously, days 1 and 8 of a 21-day cycle",7.2 months and 7.1 months
same,complete responses,[2]; 112 patients,5.4%
same,partial responses,[2]; 112 patients,22.3%
same,ORR,[3],33.3%
same,median duration of response (DOR),[3],7.7 months
same,patients having a DOR of ≥6 months,[3],55.5%
same,patients having a DOR of ≥12 months,[3],16.7%
same,"Diarrhea, patients","[4]; all grades, all patients treated",65%
same,"neutropenia, patients",[4]; all grades,61%
same,"Grade 3-4 diarrhea, patients",[4]; all patients treated,12%
same,"Grade 3-4 neutropenia, patients",[4]; in vivo,47%
same,"Neutropenic colitis, patients",[4]; in vivo,0.5%
same,"febrile neutropenia, patients",[4]; in vivo,7%
same,"intestinal perforation following diarrhea, number of patients",[4]; in vivo,One
same,Grade ≥3 TRAEs related to the named study drug,[5]; 8 patients,Grade 3 alopecia and Grade 3 neutropenia; also recorded: Grade 4 neutrophil count decreased
same,patients with AEs related to the named study drug,[5]; 8 patients,5 patients
CC[C@]12C=CCN3CC[C@@]4(c5cc([C@@]6(C(=O)OC)C[C@@H]7C[C@@H](C(C)(F)F)CN(Cc8c6[nH]c6ccccc86)C7)c(OC)cc5N(C)[C@H]4[C@@](O)(C(=O)OC)[C@@H]1OC(C)=O)[C@@H]32 [vinflunine],median overall survival (OS),[6],7-8 months
same,response rates,[6],approximately 10%
pembrolizumab: PD-1 inhibitor given in combination with chemotherapy for PD-L1 expressing TNBC,median PFS,[7]; pembrolizumab plus chemotherapy arm,9.7 months
same,PFS HR,[7]; pembrolizumab plus chemotherapy vs placebo arm,0.65
atezolizumab: a programmed death-ligand 1 (PD-L1) blocking antibody (immune checkpoint inhibitor),PFS HR,[8]; frontline,0.82
same,survival HR,[8],1.11
same,survival (lived for an average of),"[9]; PD-L1 positive subset, atezolizumab or placebo plus nab-paclitaxel",25 months
same,median progression-free survival (PFS),"[9]; PD-L1 positive tumors, atezolizumab plus nab-paclitaxel vs placebo plus nab-paclitaxel",7.4 months
same,PFS hazard ratio [HR],"[9]; PD-L1 positive, atezolizumab plus nab-paclitaxel vs placebo plus nab-paclitaxel",0.60
COc1cc(OC)cc(N(CCNC(C)C)c2ccc3ncc(-c4cnn(C)c4)nc3c2)c1 [erdafitinib],objective response rates (ORRs),patients with mUC,approximately 40%
"CN1CCN(c2ccc(Nc3ncc4cc5n(c4n3)C3(CCCCC3)CNC5=O)nc2)CC1 [trilaciclib, 2′-((5-(4-methylpiperazin-1-yl)pyridin-2-yl)amino)-7′,8′-dihydro-6′H-spiro(cyclohexane-1,9′-pyrazino(1′,2′:1,5)pyrrolo(2,3-d)pyrimidin)-6′-one]",Grade ≥3 TRAEs related to the named study drug,[5]; 8 patients,Grade 4 neutrophil count decreased
same,patients with AEs related to the named study drug,[5]; 8 patients,2 patients
same,effect of inclusion of trilaciclib on side effects associated with sacituzumab govitecan,"[5]; initial studies, compared with ASCENT study",drastically reduces the side effects
same,"Severe (Grade 3/4) neutropenia, number of patients","[5]; trilaciclib 240 mg/m^2 IV within 4 hours prior to sacituzumab govitecan-hziy 10 mg/kg, days 1 and 8 of 21-day cycles, 8 patients",1 patient
same,tolerability,"[5]; trilaciclib administered prior to sacituzumab govitecan, preliminary data",well tolerated
same,"Severe (Grade 3/4) neutropenia, percentage of patients","[5]; trilaciclib prior to sacituzumab govitecan, days 1 and 8 of 21-day cycles, 8 patients",12.5%
same,"Grade 3/4 anemia, patients",[5]; [12],No patients
same,"Grade 3/4 thrombocytopenia, patients",[5]; [12],No patients
same,"Granulocyte colony-stimulating factors administered, number of patients",[5]; [12],2 patients
same,"Granulocyte colony-stimulating factors administered, percentage of patients",[5]; [12],25%
same,"febrile neutropenia, patients",[5]; [12],none
same,patients with Grade ≥3 TRAEs,[5]; [12],Two
same,patients with ≥1 treatment-related adverse event (TRAE),[5]; [12],5 patients
same,"required erythropoiesis-stimulating agents, patients",[5]; [12],No patients
same,"required intravenous antibiotics, number of patients",[5]; [12],1 patient
same,"required red blood cell/platelet transfusions, patients",[5]; [12],No patients
same,serious adverse events reported to date,[5]; [12],no serious AEs; also recorded: no serious adverse events
same,"serious infection, patients",[5]; [12],none
same,"withdrawn due to an adverse event, patients",[5]; [12],No patients
same,"treatment-related adverse event (TRAE) of diarrhea, number","[5]; trilaciclib prior to sacituzumab govitecan, 8 patients, trilaciclib- and sacituzumab govitecan-related",1
same,"partial response, number of patients",[5]; [13],one
same,"stable disease, number of patients",[5]; [13],three

# Source: patent US20240139196A1, “COMBINATION TREATMENTS IN DIFFICULT TO TREAT PATIENTS WITH ADVANCED AND/OR METASTATIC TROP-2 OVEREXPRESSING CANCERS” (G1 Therapeutics, Inc., priority 2021, published 2024)
